Test results: patent publication US4233309A, “Novel 1-substituted-3-acylpyrrole derivatives, platelet aggregation inhibitors containing them, as active ingredients, and processes for production of said derivatives” (Teijin Limited, priority 1977, dated 1980)

How the values were obtained:
[1] = test system: biosynthesis of prostaglandins (microsomes of the seminal vesicle of bovine); experiment: Inhibitory effect on prostaglandin biosynthesis in vitro (Table 3); format: biochemical; conditions: 4 μg/ml sodium arachidonate, bioassay on rat fundus stomach strips
Experimental: Sprangue-Dawley rats (male, 180-200 g) were fasted overnight, and killed by blow on the head. The stomach was isolated, and fundus stomach strips were prepared. The smooth muscle strips were perfused with Krebs-Hensleit solution (gassed with 95% O2 +5% CO2 gas) of 37° C. at a rate of […]. The Krebs-Hensleit solution contained 0.1 μg/ml of atropine, 0.1 μg/ml of phenoxybenzamine, 3 μg/ml of propranolol, 0.1 μg/ml of tripelennamine, and 0.2 μg/ml of methylsergide to prevent the effect of smooth muscle contracting substances, and 1 μg/ml of indomethacine to inhibit the biosynthesis of prostaglandin by the smooth muscles. Then, 150 μl of a reaction solution containing biologically synthesized prostaglandin was added to the perfusion solution, and the amount of the biologically synthesized prostaglandin was measured from the contraction of the smooth muscles. The contraction of the smooth muscles was recorded on a recorder using an isotonic transducer.
The reaction solution containing biologically synthesized prostaglandin was prepared in the following manner.
To 0.4 mg/ml of microsomes of the seminal vesicle of bovine were added 5 mM of L-tryptophan, 0.025 μM of bovine hemoglobin and 3 mμ of glutathione as cofactors. The mixture was incubated together with each of the test compounds shown in Table 4 at 37° C. for 2 minutes, and immediately then, 4 μg/ml of sodium arachidonate was added. The mixture was further incubated at 37° C. for 10 minutes, and immediately then, the prostaglandin activity of the reaction solution was measured by bioassay.
The microsomes of the seminal vesicle of bovine had been prepared by suspending microsomes of the seminal vesicle of bovine (a product of Miles Laboratories, Inc.) in a 50 mM Tris.HCl buffer (pH 7.4) using a glass homogenizer, and stored in ice water prior to use.
ID50 denotes the concentration of each test compound required to inhibit the biosynthesis of prostaglandins by 50%.

[2] = test system: carrageenan edema; experiment: Antiinflammatory activity (carrageenan edema of rat paw, Table 5); format: in vivo, Sprangue-Dawley (SD) male rats; conditions: 100 mg/kg orally, 3 h after 1% carrageenan
Experimental: Sprangue-Dawley (SD) male rats with a body weight of 160 to 180 g, four in each group, were used. The volume of the left leg was measured, and each of the test compounds shown in Table 5 (100 mg/kg dissolved in polyethylene glycol so as to provide a volume of 2 ml/kg) was orally administered. One hour later, 0.1 ml of 1% carrageenan (dissolved in physiological saline) as an inflammation-inducing substance was subcutaneously injected to the paw of the left hind leg. A control group was orally administered with 2 ml/kg of polyethylene glycol. As a positive control, 25 mg/kg of Ibprofen was similarly administered. Three hours after the injection of 1% carrageenan, the volume of the left leg was measured, and the ratio of edema was calculated from the volume before the administration of the carrageenan. The percent inhibition of edema in comparison with the control group was determined.

SMILES: Cc1cc(C(=O)c2ccccc2)c(C)n1CC(C)O (centres unmarked) [Compound 102, 2-(3-benzoyl-2,5-dimethylpyrrol-1-yl)-1-methylethanol]
- ID50 (concentration required to inhibit the biosynthesis of prostaglandins by 50%) [1]: 11.9 µg/mL
- Percent inhibition of edema [2]: 8%
